Molecules are shown by their SMILES. Where two headings read alike, the source gives them in different places.

The values that follow come from article PMC6781469 (Journal of Enzyme Inhibition and Medicinal Chemistry, 2019).

Experiment [1] has as its target T1, FLT3(h) (Homo sapiens, UniProt P36888).
T1 sequence (P36888 27-993): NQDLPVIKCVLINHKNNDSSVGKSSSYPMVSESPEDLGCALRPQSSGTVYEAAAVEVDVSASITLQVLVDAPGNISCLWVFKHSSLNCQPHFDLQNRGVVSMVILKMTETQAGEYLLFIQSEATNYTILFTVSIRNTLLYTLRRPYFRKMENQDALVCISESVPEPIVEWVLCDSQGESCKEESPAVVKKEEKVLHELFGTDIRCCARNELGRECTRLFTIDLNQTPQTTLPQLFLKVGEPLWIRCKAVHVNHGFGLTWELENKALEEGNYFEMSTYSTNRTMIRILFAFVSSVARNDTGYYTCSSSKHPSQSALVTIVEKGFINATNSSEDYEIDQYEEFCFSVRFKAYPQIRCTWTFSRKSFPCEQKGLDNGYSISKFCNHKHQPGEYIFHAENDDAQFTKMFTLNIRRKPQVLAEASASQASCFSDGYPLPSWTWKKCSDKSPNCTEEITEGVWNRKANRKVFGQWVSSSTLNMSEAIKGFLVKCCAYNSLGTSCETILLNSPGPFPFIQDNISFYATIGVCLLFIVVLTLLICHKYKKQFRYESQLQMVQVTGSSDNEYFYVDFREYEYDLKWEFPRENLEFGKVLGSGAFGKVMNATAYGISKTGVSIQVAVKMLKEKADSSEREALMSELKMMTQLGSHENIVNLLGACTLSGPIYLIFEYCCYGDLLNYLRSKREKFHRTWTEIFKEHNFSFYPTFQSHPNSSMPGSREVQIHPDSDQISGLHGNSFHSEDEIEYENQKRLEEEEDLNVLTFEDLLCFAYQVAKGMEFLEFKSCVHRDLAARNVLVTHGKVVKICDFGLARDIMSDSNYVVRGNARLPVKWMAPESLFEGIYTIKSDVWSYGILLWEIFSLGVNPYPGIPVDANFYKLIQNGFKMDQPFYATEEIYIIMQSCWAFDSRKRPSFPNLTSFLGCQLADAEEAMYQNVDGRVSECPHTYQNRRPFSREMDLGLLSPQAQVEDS
Put plainly: Reaction Biology Kinase HotSpot radiometric kinase assay, FLT3. The settings on record: for times more potent than 5f against FLT3: ratio of FLT3 IC50 versus 5f.

In experiment [2] the target is RAF1 (Homo sapiens, UniProt P04049). Put plainly: kinase panel screen, RAF1. The note with it: read-out: % Inhibition RAF1.
The target in experiment [3] is T2, FLT3 (ITD) (Homo sapiens, UniProt P36888, ITD).
T2 sequence (P36888 564-993): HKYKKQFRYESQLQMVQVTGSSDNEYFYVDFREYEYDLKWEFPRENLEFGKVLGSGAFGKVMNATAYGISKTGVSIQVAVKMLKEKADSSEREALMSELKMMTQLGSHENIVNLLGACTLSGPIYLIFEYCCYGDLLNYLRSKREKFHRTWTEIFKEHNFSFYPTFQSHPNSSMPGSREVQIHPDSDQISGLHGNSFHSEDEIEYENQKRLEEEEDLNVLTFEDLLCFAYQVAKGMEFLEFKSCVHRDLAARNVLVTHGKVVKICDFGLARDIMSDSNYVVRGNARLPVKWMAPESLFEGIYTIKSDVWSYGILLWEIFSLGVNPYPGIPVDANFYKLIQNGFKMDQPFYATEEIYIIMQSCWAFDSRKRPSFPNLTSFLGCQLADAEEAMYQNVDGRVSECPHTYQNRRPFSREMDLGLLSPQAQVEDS
Put plainly: kinase panel screen, FLT3 (ITD). The note with it: read-out: % Inhibition FLT3 (ITD).

In experiment [4] the target is FMS (Homo sapiens, UniProt P07333). Put plainly: Reaction Biology Kinase HotSpot kinase assay, FMS.
Experiment [5] relates to KIT. Also on record: method as in earlier work. The note with it: competitive-binding assays in vitro; read-out: IC50 against KIT; cited from earlier work.
Experiment [6] concerns FLT-3. Set-up: method as in earlier work. The note with it: competitive-binding assays in vitro; read-out: IC50 against FLT-3; cited from earlier work.

FMS, sequence (P07333 20-972): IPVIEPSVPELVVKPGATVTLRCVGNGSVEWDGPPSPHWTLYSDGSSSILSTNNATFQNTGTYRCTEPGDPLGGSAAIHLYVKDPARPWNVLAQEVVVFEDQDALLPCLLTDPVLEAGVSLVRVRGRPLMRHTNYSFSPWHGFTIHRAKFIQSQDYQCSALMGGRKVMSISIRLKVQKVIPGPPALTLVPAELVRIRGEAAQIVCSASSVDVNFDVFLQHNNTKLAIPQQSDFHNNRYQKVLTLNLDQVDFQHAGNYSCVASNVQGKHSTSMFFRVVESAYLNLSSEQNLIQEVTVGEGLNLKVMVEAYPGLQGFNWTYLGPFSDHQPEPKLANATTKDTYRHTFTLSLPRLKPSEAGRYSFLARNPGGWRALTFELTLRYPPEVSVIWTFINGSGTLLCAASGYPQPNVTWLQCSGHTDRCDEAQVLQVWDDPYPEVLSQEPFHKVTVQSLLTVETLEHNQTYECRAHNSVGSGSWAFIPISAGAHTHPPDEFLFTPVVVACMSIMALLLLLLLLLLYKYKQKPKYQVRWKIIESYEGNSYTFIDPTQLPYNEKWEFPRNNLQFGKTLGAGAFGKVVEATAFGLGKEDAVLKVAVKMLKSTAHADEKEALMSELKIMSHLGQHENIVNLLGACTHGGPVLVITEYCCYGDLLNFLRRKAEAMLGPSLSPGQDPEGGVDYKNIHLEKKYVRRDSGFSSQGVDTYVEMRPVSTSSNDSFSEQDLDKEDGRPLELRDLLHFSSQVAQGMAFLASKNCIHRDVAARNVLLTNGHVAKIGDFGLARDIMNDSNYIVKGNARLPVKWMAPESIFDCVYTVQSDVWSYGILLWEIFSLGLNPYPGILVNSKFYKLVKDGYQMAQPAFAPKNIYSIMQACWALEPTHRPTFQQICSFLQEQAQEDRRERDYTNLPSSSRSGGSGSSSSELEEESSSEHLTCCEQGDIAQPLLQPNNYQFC
RAF1, sequence (P04049 whole entry): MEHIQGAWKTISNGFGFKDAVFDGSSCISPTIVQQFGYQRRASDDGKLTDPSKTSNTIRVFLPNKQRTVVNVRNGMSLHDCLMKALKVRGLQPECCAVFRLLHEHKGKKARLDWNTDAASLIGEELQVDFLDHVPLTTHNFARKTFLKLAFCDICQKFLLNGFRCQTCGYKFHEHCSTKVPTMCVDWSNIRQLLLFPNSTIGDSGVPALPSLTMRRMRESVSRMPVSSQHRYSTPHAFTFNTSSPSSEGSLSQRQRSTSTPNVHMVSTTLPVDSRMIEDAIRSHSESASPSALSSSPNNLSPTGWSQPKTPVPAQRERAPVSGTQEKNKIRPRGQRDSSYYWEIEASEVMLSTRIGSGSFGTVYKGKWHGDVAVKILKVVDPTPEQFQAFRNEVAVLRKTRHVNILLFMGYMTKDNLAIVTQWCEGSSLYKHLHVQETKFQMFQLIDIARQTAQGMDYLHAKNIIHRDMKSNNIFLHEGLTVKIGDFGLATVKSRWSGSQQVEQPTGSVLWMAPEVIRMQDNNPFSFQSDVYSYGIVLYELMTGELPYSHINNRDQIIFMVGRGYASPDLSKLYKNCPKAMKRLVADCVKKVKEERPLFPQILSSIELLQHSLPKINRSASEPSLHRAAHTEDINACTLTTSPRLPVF

As a reminder, the IC50 is the concentration at which inhibition is half-maximal. As usually defined, the inhibition is the share of the control response that was lost under treatment. In turn, `Cc1oncc1C(=O)Nc1ccc2nc(-c3cc(N4CCN(C)CC4)cc(C(F)(F)F)c3)[nH]c2c1` [5a, 5-methyl-N-(2-(3-(4-methylpiperazin-1-yl)-5-(trifluoromethyl)phenyl)-1H-benzo[d]imidazole-5-yl) isoxazole-4-carboxamide] displayed an IC50 in experiment [1] of 0.495 µM. Moreover, the inhibition at 10 µM in experiment [1] (read-out: % Inhibition FLT3) turned out to be 90%; in experiment [2], 8.47%; in experiment [3] it was 88.5%; in experiment [4] (read-out: % Inhibition FMS) it was 0%.

For `Cc1oncc1C(=O)Nc1ccc2[nH]c(-c3cc(N4CCOCC4)cc(C(F)(F)F)c3)nc2c1` [5b], in experiment [1] (read-out: IC50 (µM) FLT3, enzymatic activity, Table 1, NA not defined), the IC50 came out at 7.94 µM.

As to `Cc1oncc1C(=O)Nc1ccc2[nH]c(-c3ccc(N4CCOCC4)c(C(F)(F)F)c3)nc2c1` [5c], the 50% inhibitory concentration (IC50) in experiment [1] is around 10 µM.

On to `Cc1cn(-c2cc(-c3nc4cc(NC(=O)c5cnoc5C)ccc4[nH]3)cc(C(F)(F)F)c2)cn1` [5d], for which, in experiment [1], the IC50 turned out to be 2.33 µM and the “times more potent than 5f against FLT3” value is listed as 6–8 times.

Consider `Cc1oncc1C(=O)Nc1ccc2[nH]c(-c3cc(-n4cncc4C)cc(C(F)(F)F)c3)nc2c1` [5e], for which the half-inhibitory concentration (IC50) in experiment [1] was found to be 1.62 µM; in experiment [4] it was 9.98 µM. The “times more potent than 5f against FLT3” value in experiment [1] is 6–8 times.

In experiment [1], `Cc1oncc1C(=O)Nc1ccc2[nH]c(-c3cc(-n4ccnc4C)cc(C(F)(F)F)c3)nc2c1` [5f] displayed a 50% inhibitory concentration (IC50) of 13.4 µM.

Turning to `Cc1oncc1C(=O)Nc1cccc2[nH]c(-c3cc(N4CCN(C)CC4)cc(C(F)(F)F)c3)nc12` [6a], half-maximal inhibition in experiment [1] (IC50) was put at 2.25 µM.

On to `Cc1oncc1C(=O)Nc1cccc2[nH]c(-c3ccc(N4CCOCC4)c(C(F)(F)F)c3)nc12` [6b], for which, in experiment [1], the IC50 came out at 13.9 µM.

As to `Cc1cn(-c2cc(-c3nc4c(NC(=O)c5cnoc5C)cccc4[nH]3)cc(C(F)(F)F)c2)cn1` [6c], the IC50 in experiment [1] came to 6.2 µM.

Regarding `CC(C)(C)c1cc(NC(=O)Nc2ccc(-c3ccc(N)nc3)cc2)no1` [compound 1], the IC50 in experiment [5] and in experiment [6] was 0.001 µM in each case.
